Reference: the supplement of paper PMC10307832

Experiments:
Test in all cases: relative viability (nuclei count vs DMSO), 5 days (fraction); higher = more cells survive
NCI-H2126 = system: NCI-H2126
Summary of the method: (§1)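 Nuclei were stained with Hoechst during a one-step fixation (final 0.05% Triton X-100, 1% formaldehyde, 1 ug/ml Hoechst) carried out 5 days after dosing, then counted on 4× images. The cells, lung cancer lines in 1536-well plates, had been dosed by pin tool the day after seeding with one drug alone or a fixed anchor-drug dose plus five library-drug doses (not always all listed) in √10 steps. Relative viability is the nuclei count in treated wells divided by that in vehicle wells, and each value is the median of duplicate plates.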

CAL-12T = system: CAL-12T
Summary of the method: as §1

EPLC-272H = system: EPLC-272H
Summary of the method: as §1

LXF-289 = system: LXF-289
Summary of the method: as §1

NCI-H1915 = system: NCI-H1915
Summary of the method: as §1

NCI-H3122 = system: NCI-H3122
Summary of the method: as §1

HOP-62 = system: HOP-62
Summary of the method: as §1

NCI-H1975 = system: NCI-H1975
Summary of the method: as §1

NCI-H1666 = system: NCI-H1666
Summary of the method: as §1

UMC-11 = system: UMC-11
Summary of the method: as §1

NCI-H2023 = system: NCI-H2023
Summary of the method: as §1

NCI-H441 = system: NCI-H441
Summary of the method: as §1

EMC-BAC-2 = system: EMC-BAC-2
Summary of the method: as §1

NCI-H358 = system: NCI-H358
Summary of the method: as §1

HCC-15 = system: HCC-15
Summary of the method: as §1

NCI-H2085 = system: NCI-H2085
Summary of the method: as §1

NCI-H1755 = system: NCI-H1755
Summary of the method: as §1

COR-L 105 = system: COR-L 105
Summary of the method: as §1

ABC-1 = system: ABC-1
Summary of the method: as §1

HCC-78 = system: HCC-78
Summary of the method: as §1

NCI-H322M = system: NCI-H322M
Summary of the method: as §1

O=c1cc(N2CCOCC2)oc2c(-c3cccc4c3sc3ccccc34)cccc12 + Cc1nc(NC(=O)N2CCC[C@H]2C(N)=O)sc1-c1ccnc(C(C)(C)C(F)(F)F)c1 [Alpelisib] (partner 2 µM)
relative viability (NCI-H2126; first compound 0.01 µM): 0.721 | relative viability (NCI-H2126; first compound 0.03162 µM): 0.736 | relative viability (NCI-H2126; first compound 0.1 µM): 0.762 | relative viability (NCI-H2126; first compound 0.3162 µM): 0.733 | relative viability (NCI-H2126; first compound 1 µM): 0.729 | relative viability (CAL-12T; first compound 0.01 µM): 1.29 | relative viability (CAL-12T; first compound 0.03162 µM): 1.1 | relative viability (CAL-12T; first compound 0.1 µM): 1.13 | relative viability (CAL-12T; first compound 0.3162 µM): 1.27 | relative viability (CAL-12T; first compound 1 µM): 1.1 | relative viability (EPLC-272H; first compound 0.01 µM): 0.955 | relative viability (EPLC-272H; first compound 0.03162 µM): 0.957 | relative viability (EPLC-272H; first compound 0.3162 µM): 1.03 | relative viability (EPLC-272H; first compound 1 µM): 0.891 | relative viability (LXF-289; first compound 0.01 µM): 1.05 | relative viability (LXF-289; first compound 0.03162 µM): 1.03 | relative viability (LXF-289; first compound 0.1 µM): 1.05 | relative viability (LXF-289; first compound 0.3162 µM): 1 | relative viability (LXF-289; first compound 1 µM): 1.02 | relative viability (NCI-H1915; first compound 0.01 µM): 1.08 | relative viability (NCI-H1915; first compound 0.03162 µM): 1.04 | relative viability (NCI-H1915; first compound 0.1 µM): 1.07 | relative viability (NCI-H1915; first compound 0.3162 µM): 1.04 | relative viability (NCI-H1915; first compound 1 µM): 1.06 | relative viability (NCI-H3122; first compound 0.01 µM): 0.868 | relative viability (NCI-H3122; first compound 0.03162 µM): 0.729 | relative viability (NCI-H3122; first compound 0.1 µM): 0.839 | relative viability (NCI-H3122; first compound 0.3162 µM): 0.756 | relative viability (NCI-H3122; first compound 1 µM): 0.713 | relative viability (HOP-62; first compound 0.01 µM): 1.08 | relative viability (HOP-62; first compound 0.03162 µM): 0.958 | relative viability (HOP-62; first compound 0.1 µM): 1.24 | relative viability (HOP-62; first compound 0.3162 µM): 1.19 | relative viability (HOP-62; first compound 1 µM): 1.1 | relative viability (NCI-H1975; first compound 0.01 µM): 0.619 | relative viability (NCI-H1975; first compound 0.03162 µM): 0.623 | relative viability (NCI-H1975; first compound 0.1 µM): 0.649 | relative viability (NCI-H1975; first compound 0.3162 µM): 0.621 | relative viability (NCI-H1975; first compound 1 µM): 0.608 | relative viability (NCI-H1666; first compound 0.01 µM): 0.936 | relative viability (NCI-H1666; first compound 0.03162 µM): 0.864 | relative viability (NCI-H1666; first compound 0.1 µM): 0.977 | relative viability (NCI-H1666; first compound 0.3162 µM): 0.963 | relative viability (NCI-H1666; first compound 1 µM): 0.832 | relative viability (UMC-11; first compound 0.01 µM): 0.995 | relative viability (UMC-11; first compound 0.03162 µM): 1.01 | relative viability (UMC-11; first compound 0.1 µM): 0.986 | relative viability (UMC-11; first compound 0.3162 µM): 0.979 | relative viability (UMC-11; first compound 1 µM): 0.872 | relative viability (NCI-H2023; first compound 0.01 µM): 0.653 | relative viability (NCI-H2023; first compound 0.03162 µM): 0.621 | relative viability (NCI-H2023; first compound 0.1 µM): 0.618 | relative viability (NCI-H2023; first compound 0.3162 µM): 0.532 | relative viability (NCI-H2023; first compound 1 µM): 0.487 | relative viability (NCI-H441; first compound 0.01 µM): 0.832 | relative viability (NCI-H441; first compound 0.03162 µM): 0.658 | relative viability (NCI-H441; first compound 0.1 µM): 0.792 | relative viability (NCI-H441; first compound 0.3162 µM): 0.842 | relative viability (NCI-H441; first compound 1 µM): 0.7 | relative viability (EMC-BAC-2; first compound 0.01 µM): 0.726 | relative viability (EMC-BAC-2; first compound 0.03162 µM): 0.781 | relative viability (EMC-BAC-2; first compound 0.1 µM): 0.813 | relative viability (EMC-BAC-2; first compound 0.3162 µM): 0.759 | relative viability (EMC-BAC-2; first compound 1 µM): 0.722 | relative viability (NCI-H358; first compound 0.01 µM): 0.811 | relative viability (NCI-H358; first compound 0.03162 µM): 0.807 | relative viability (NCI-H358; first compound 0.1 µM): 0.841 | relative viability (NCI-H358; first compound 0.3162 µM): 0.847 | relative viability (NCI-H358; first compound 1 µM): 0.83 | relative viability (HCC-15; first compound 0.01 µM): 0.87 | relative viability (HCC-15; first compound 0.03162 µM): 0.92 | relative viability (HCC-15; first compound 0.1 µM): 0.971 | relative viability (HCC-15; first compound 0.3162 µM): 0.859 | relative viability (HCC-15; first compound 1 µM): 0.828 | relative viability (NCI-H2085; first compound 0.01 µM): 0.941 | relative viability (NCI-H2085; first compound 0.03162 µM): 0.902 | relative viability (NCI-H2085; first compound 0.1 µM): 1.02 | relative viability (NCI-H2085; first compound 0.3162 µM): 0.919 | relative viability (NCI-H2085; first compound 1 µM): 0.983 | relative viability (NCI-H1755; first compound 0.01 µM): 0.952 | relative viability (NCI-H1755; first compound 0.03162 µM): 0.901 | relative viability (NCI-H1755; first compound 0.1 µM): 0.984 | relative viability (NCI-H1755; first compound 0.3162 µM): 0.866 | relative viability (NCI-H1755; first compound 1 µM): 0.894 | relative viability (COR-L 105; first compound 0.01 µM): 1.1 | relative viability (COR-L 105; first compound 0.03162 µM): 0.933 | relative viability (COR-L 105; first compound 0.1 µM): 0.834 | relative viability (COR-L 105; first compound 0.3162 µM): 1.06 | relative viability (COR-L 105; first compound 1 µM): 0.838 | relative viability (ABC-1; first compound 0.01 µM): 1.11 | relative viability (ABC-1; first compound 0.03162 µM): 0.939 | relative viability (ABC-1; first compound 0.1 µM): 1.01 | relative viability (ABC-1; first compound 0.3162 µM): 0.883 | relative viability (ABC-1; first compound 1 µM): 0.857 | relative viability (HCC-78; first compound 0.01 µM): 0.374 | relative viability (HCC-78; first compound 0.03162 µM): 0.305 | relative viability (HCC-78; first compound 0.1 µM): 0.299 | relative viability (HCC-78; first compound 0.3162 µM): 0.406 | relative viability (HCC-78; first compound 1 µM): 0.331 | relative viability (NCI-H322M; first compound 0.01 µM): 0.804 | relative viability (NCI-H322M; first compound 0.03162 µM): 0.721 | relative viability (NCI-H322M; first compound 0.3162 µM): 0.82 | relative viability (NCI-H322M; first compound 1 µM): 0.813
